Assay results from US20250144067A1, “PERSONALIZED STARVATION THERAPY FOR CANCER” (Faeth Therapeutics, Inc., priority 2021, published 2025).
Counter-ions that a name gives are not always drawn. Like-named read-outs stand apart in the source and are kept apart here.

Tests used:
[1] = tested on: NCI-H292 lung cancer cells; experiment: FDA drug screening, complete media vs cholesterol-free media with simvastatin (TABLE 2); format: cell-based, human
[2] = tested on: NCI-H292 lung cancer cells; experiment: FDA drug screening, complete media vs cholesterol-free media without statin (TABLE 1); format: cell-based, human
[3] = complete media vs cholesterol-free media + simvastatin (0.04 μM), >0 enhanced anti-cancer activity, about 0 neutral, <0 antagonist
[4] = Complete minus Cholesterol-free, greater than 0 enhanced anti-cancer activity, about 0 neutral, below 0 antagonist
[5] = NCI-H292 cells, FDA drug library screen, cholesterol-free media without statin
[6] = NCI-H292 cells, FDA drug library screen, complete media
[7] = NCI-H292 cells, cholesterol-free media with simvastatin 0.04 μM, cell growth value in FDA drug screen
[8] = NCI-H292 cells, complete media, cell growth value in FDA drug screen
[9] = complete media minus cholesterol-free media + simvastatin, >0 enhanced anti-cancer activity, about 0 neutral, <0 antagonist
[10] = Complete minus Cholesterol-free, >0 enhanced anti-cancer activity, about 0 neutral, <0 antagonist
[11] = NCI-H292 cells, cholesterol-free media without statin, FDA drug library screen
[12] = NCI-H292 cells, complete media, FDA drug library screen
[13] = NCI-H292 cells, FDA drug library screen, cholesterol-free media with simvastatin 0.04 μM
[14] = NCI-H292 cells, drug in cholesterol-free media with simvastatin 0.04 μM
[15] = NCI-H292 cells, drug in complete media
[16] = NCI-H292 cells, cholesterol-free media without statin
[17] = complete vs cholesterol-free media, >0 enhanced anti-cancer activity, about 0 neutral, <0 antagonist

Compound | Difference [1, 3] | Difference [1, 9] | Difference [2, 10] | Cholesterol-free [2, 11] | Complete [2, 12] | Cholesterol-free media + simvastatin (0.04 μM) [1, 14] | Complete Media [1, 15] | Cholesterol-free [2, 16] | Complete ([2]; NCI-H292 cells, complete media) | other results
COc1cc2c(cc1OC)[C@H]1C[C@@H](OC(=O)[C@@H](N)C(C)C)[C@H](CC(C)C)CN1CC2 [Valbenazine] | −0.29 |  |  |  |  |  |  |  |  | Cholesterol-free media + simvastatin (0.04 μM) ([1]; NCI-H292 cells, FDA library drug in cholesterol-free media with simvastatin 0.04 μM): 1.305; Complete Media ([1]; NCI-H292 cells, FDA library drug in complete media): 1.011; Difference [2, 4]: −0.16; Cholesterol-free [2, 5]: 1.298; Complete [2, 6]: 1.135
Cc1onc(-c2ccccc2)c1-c1ccc(S(N)(=O)=O)cc1 [Valdecoxib] |  | 0.03 | 0.02 | 0.9021 | 0.9224 |  |  |  |  | Cholesterol-free media + simvastatin (0.04 μM) [1, 7]: 0.9234; Complete Media [1, 8]: 0.9538
CC(C)[C@H](N)C(=O)OCC(CO)OCn1cnc2c(=O)nc(N)[nH]c21 (stereo partly drawn) [Valganciclovir (hydrochloride)] |  | 0.22 | −0.03 | 1.042 | 1.007 |  |  |  |  | Cholesterol-free media + simvastatin (0.04 μM) [1, 13]: 0.9599; Complete Media [1, 6]: 1.178
CCCC(CCC)C(=O)O [Valproic acid (sodium salt)] | −0.24 |  | −0.26 |  |  | 0.961 | 0.7238 | 0.9818 | 0.7267 | 
CCCC(CCC)C(=O)O [Valproic acid] | −0.22 |  | −0.29 |  |  | 1.017 | 0.7948 | 0.957 | 0.6641 | 
CCCC(CCC)C(N)=O [Valpromide] |  | 0.31 | −0.27 |  |  |  |  | 1.075 | 0.8044 | Cholesterol-free media + simvastatin (0.04 μM) [1, 13]: 1.404; Complete Media [1, 6]: 1.717
CCCCC(=O)OCC(=O)[C@]1(O)Cc2c(O)c3c(c(O)c2[C@@H](O[C@H]2C[C@H](NC(=O)C(F)(F)F)[C@H](O)[C@H](C)O2)C1)C(=O)c1c(OC)cccc1C3=O [Valrubicin] |  | 0.11 | 0.02 | 0.04622 | 0.06624 |  |  |  |  | Cholesterol-free media + simvastatin (0.04 μM) [1, 7]: 0.07499; Complete Media [1, 8]: 0.1845
CCCCC(=O)N(Cc1ccc(-c2ccccc2-c2nnn[nH]2)cc1)[C@H](C(=O)O)C(C)C [Valsartan] | −0.20 |  |  |  |  | 1.056 | 0.8568 |  |  | Difference [2, 4]: −0.09; Cholesterol-free [2, 5]: 0.8984; Complete [2, 6]: 0.8065
CN[C@H](CC(C)C)C(=O)N[C@H]1C(=O)N[C@@H](CC(N)=O)C(=O)N[C@H]2C(=O)N[C@H]3C(=O)N[C@H](C(=O)N[C@H](C(=O)O)c4cc(O)cc(O)c4-c4cc3ccc4O)[C@H](O)c3ccc(c(Cl)c3)Oc3cc2cc(c3O[C@@H]2O[C@H](CO)[C@@H](O)[C@H](O)[C@H]2O[C@H]2C[C@](C)(N)[C@H](O)[C@H](C)O2)Oc2ccc(cc2Cl)[C@H]1O [Vancomycin (hydrochloride)] |  |  |  |  |  |  |  |  |  | Cholesterol-free media + simvastatin (0.04 μM) [1]: 0.8152; Complete Media [1]: 0.7422; Difference [1]: −0.07; Cholesterol-free [2]: 0.8305; Complete [2]: 0.7537; Difference [2]: −0.08
COc1cc2c(Nc3ccc(Br)cc3F)ncnc2cc1OCC1CCN(C)CC1 [Vandetanib] |  | 0.32 |  | 0.1902 | 0.3633 |  |  |  |  | Cholesterol-free media + simvastatin (0.04 μM) [1, 13]: 0.4174; Complete Media [1, 6]: 0.7391; Difference [2, 17]: 0.17
COc1cc(C=O)ccc1O [Vanillin] |  |  |  | 0.7241 | 0.863 |  |  |  |  | Cholesterol-free media + simvastatin (0.04 μM) ([1]; NCI-H292 cells, cholesterol-free media with simvastatin 0.04 μM, FDA drug library screen (TABLE 2)): 1.042; Complete Media ([1]; NCI-H292 cells, complete media, FDA drug library screen (TABLE 2)): 1.057; Difference ([1]; complete media minus cholesterol-free media + simvastatin (0.04 μM), >0 enhanced anti-cancer activity, about 0 neutral, <0 antagonist): 0.02; Difference [2, 17]: 0.14
CCCc1nc(C)c2c(=O)[nH]c(-c3cc(S(=O)(=O)N4CCN(CC)CC4)ccc3OCC)nn12 [Vardenafil (hydrochloride)] |  | 0.05 |  |  |  |  |  | 1.352 | 0.985 | Cholesterol-free media + simvastatin (0.04 μM) [1, 7]: 1.201; Complete Media [1, 8]: 1.248; Difference ([2]; complete vs cholesterol-free media, greater than 0 enhanced anti-cancer activity, about 0 neutral, below 0 antagonists): −0.37
c1cnc2cc3c(cc2n1)[C@@H]1CNC[C@H]3C1 [Varenicline (Hydrochloride)] | −0.21 |  | −0.20 |  |  | 1.193 | 0.9876 | 1.095 | 0.8911 | 
